The nature of the data set: solubility in water and organic solvents. In kind it is physicochemical. Particulars: free form; water, highly water-soluble organic solvents, highly fat-soluble organic solvents.

Molecules are shown by their SMILES.

Take `COc1cc(C#Cc2nn([C@H]3CCNC3)c3ncnc(N)c23)cc(OC)c1` [Compound B, (S)-3-((3,5-dimethoxyphenyl)ethynyl)-1-(pyrrolidin-3-yl)-1H-pyrazolo[3,4-d]pyrimidin-4-amine]: the solubility result is on record as “easily soluble”.

These data come from US20210388002A1, “DIMETHOXYBENZENE COMPOUND ANALOGS, METHODS FOR ANALYZING SAID COMPOUNDS AND STANDARD PRODUCTS OF SAID COMPOUNDS” (TAIHO PHARMACEUTICAL CO., LTD., priority 2018, published 2021).
